Results reported in patent US20220281886A1, “NATRIURETIC PEPTIDE RECEPTOR A AGONISTS USEFUL FOR THE TREATMENT OF CARDIOMETABOLIC DISEASES, KIDNEY DISEASE AND DIABETES” (Merck Sharp & Dohme Corp., priority 2019, published 2022).
pEC50: −log10 of the molar value.

Target: T1, hNPRA (Homo sapiens, UniProt P16066)
T1 construct: expressed in transfected cells
T1 sequence (P16066 33-1061): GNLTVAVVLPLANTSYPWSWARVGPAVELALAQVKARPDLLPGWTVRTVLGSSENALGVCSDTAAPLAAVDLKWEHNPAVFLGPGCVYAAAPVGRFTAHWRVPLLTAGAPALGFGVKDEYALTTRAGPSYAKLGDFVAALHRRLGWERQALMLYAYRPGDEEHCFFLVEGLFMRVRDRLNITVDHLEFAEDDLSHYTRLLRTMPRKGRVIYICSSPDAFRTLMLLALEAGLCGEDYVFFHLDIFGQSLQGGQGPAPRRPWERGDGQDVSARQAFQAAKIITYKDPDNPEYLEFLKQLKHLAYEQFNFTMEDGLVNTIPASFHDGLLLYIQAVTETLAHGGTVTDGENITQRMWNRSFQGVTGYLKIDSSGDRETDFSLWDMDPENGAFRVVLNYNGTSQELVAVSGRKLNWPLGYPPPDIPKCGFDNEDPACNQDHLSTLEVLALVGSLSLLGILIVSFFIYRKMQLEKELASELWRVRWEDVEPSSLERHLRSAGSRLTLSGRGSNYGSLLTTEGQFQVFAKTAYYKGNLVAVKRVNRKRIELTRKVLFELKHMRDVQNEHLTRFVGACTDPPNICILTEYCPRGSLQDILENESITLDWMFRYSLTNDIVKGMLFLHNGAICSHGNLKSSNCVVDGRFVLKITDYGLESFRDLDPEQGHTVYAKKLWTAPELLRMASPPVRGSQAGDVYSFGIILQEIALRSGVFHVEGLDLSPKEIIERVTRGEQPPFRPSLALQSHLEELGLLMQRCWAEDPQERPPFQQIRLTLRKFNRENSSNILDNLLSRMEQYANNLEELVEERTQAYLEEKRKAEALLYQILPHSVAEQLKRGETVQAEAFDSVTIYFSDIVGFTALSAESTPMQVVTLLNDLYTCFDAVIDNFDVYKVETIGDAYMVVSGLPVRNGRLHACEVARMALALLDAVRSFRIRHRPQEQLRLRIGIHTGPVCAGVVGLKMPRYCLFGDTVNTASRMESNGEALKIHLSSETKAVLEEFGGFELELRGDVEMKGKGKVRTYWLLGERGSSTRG
Assay: NPRA Functional Cell Assay (cGMP HTRF)
Assay type: cell-based
Conditions: Human NPRA HEK JumpIn stable cells; cGMP by HTRF after 1 hour at 37° C.; 10-point dose response
Source text: Assay Buffer components HEPES and Opti-MEM® I Reduced-Serum with Glutamine (no phenol red) were from Gibco/Invitrogen (Thermo Fisher Scientific, Waltham, Mass. USA). 3-Isobutyl-1-methylxanthine (IBMX) and 4-(3-Butoxy-4-methoxybenzyl)imidazolidin-2-one (RO20) were obtained from Sigma-Aldrich (St. Louis, Mo., USA). DPBS (Dulbecco's phosphate-buffered saline) without Ca2+ and Mg2+ was purchased from GE Healthcare Bio-Sciences (Pittsburgh, Pa., USA). 384 well white Optiplates were from Perkin Elmer (Atlantic Highlands, N.J., USA). Human ANP (Atrial Natriuretic Peptide) (1-28) was purchased from Sigma-Aldrich (Catalog #A1663) and rat ANP (1-28) from Bachem (Torrance, Calif., USA) (Catalog #H2100). Human-BNP (Human-Brain Natriuretic Peptide) (1-32 AA) was purchased from American Peptide Company (Sunnyvale, Calif., USA) (product No. 14-1-90). cGMP kits were purchased from Cisbio. The assay ready frozen (ARF) Human/rat/dog NPRA HEK JumpIn Stable frozen cells (low passage number 5-11) were prepared in-house.
Test compounds were titrated in DMSO in a 10-point dose response in a separate step followed by a 100-fold dilution into the reaction. Positive response for each assay was determined using 10 nM rat-ANP peptide (rat cells) or 50 nM h-ANP peptide (human and dog cells).
Cells were thawed, washed with DPBS and resuspended in assay buffer (Opti-MEM+Glutamine, phenol red free media, 10 mM HEPES, 100 uM IBMX and 100 uM RO20) that was warmed to 37° C. Cells were then transferred to microplates via a Microplate Combi dispenser at a density of 1500, 400 and 1200 cells/well for human, rat and dog cells respectively, followed by acoustic transfer (Echo) of compound.
(§1) Compounds and cells were incubated at 37° C. with 5% CO2 for 1 hour, after which the cells were lysed and cGMP was captured using a CisBio cGMP HTRF assay kit. The TRF signal was measured with an Envision plate reader (emission set to 615 and 665 nm) after 1 hour incubation at ambient temperature. The TRF signal was converted to [cGMP] through the use of a cGMP calibration curve on each microplate. EC50's were generated from the resulting dose response curves by use of a 4 parameter logistic algorithm.
Assay Buffer components HEPES and Opti-MEM® I Reduced-Serum with Glutamine (no phenol red) were from Gibco/Invitrogen. 3-Isobutyl-1-methylxanthine (IBMX) and 4-(3-Butoxy-4-methoxybenzyl)imidazolidin-2-one (RO20) were obtained from Sigma. DPBS (Dulbecco's phosphate-buffered saline) without Ca2+ and Mg2+ was purchased from GE Healthcare Bio-Sciences (Pittsburgh, Pa., USA). 384 well white Optiplates were from Perkin Elmer (Atlantic Highlands, N.J., USA). Human ANP (1-28) was purchased from Sigma (A1663) and rat ANP (1-28) from Bachem (H2100). Human-BNP (1-32 AA) was purchased from American Peptide Company (Sunnyvale, Calif., USA) (product No. 14-1-90). cGMP kits were purchased from Cisbio (Bedford, Mass., USA). The assay ready frozen (ARF) Human/rat/dog NPRA HEK JumpIn Stable frozen cells (low passage number 5-11) were prepared in-house.
as §1, with “Envision®” for “Envision”, “(Perkin Elmer)(emission” for “(emission”
hNPRA EC50 (nM) are were determined for the compounds of Example 1 through 273 and are reported in the Experimental section of this application.

Compound | pEC50
CC(C)[C@]1(F)CCc2nc3c(F)cc(C(=O)N[C@H](CCN4CCC(O)CC4)c4ccc(-c5cn[nH]c5)nc4)cc3cc2C1 [Example 32, (S)-N-((R)-1-(6-(1H-pyrazol-4-yl)pyridin-3-yl)-3-(4-hydroxypiperidin-1-yl)propyl)-4,7-difluoro-7-isopropyl-5,6,7,8-tetrahydroacridine-2-carboxamide] | 6.66
CC(C)[C@]1(F)CCc2nc3c(F)cc(C(=O)N[C@H](CCN4CCC5(O)CCCCC5C4)c4ccc(-c5ccnnc5)nc4)cc3cc2C1 (stereo partly drawn) [Example 15, (7S)-4,7-difluoro-N-[(1R)-3-(4a-hydroxyoctahydroisoquinolin-2(1H)-yl)-1-(6-pyridazin-4-ylpyridin-3-yl)propyl]-7-(1-methylethyl)-5,6,7,8-tetrahydroacridine-2-carboxamide] | 6.59
CC(C)[C@]1(F)CCc2nc3c(F)c(F)c(C(=O)N[C@H](CCN4CCC(O)CC4)c4ccc(N5CCOC5=O)cc4)cc3cc2C1 [Example 7, (7S)-3,4,7-trifluoro-N-{(1R)-3-(4-hydroxypiperidin-1-yl)-1-[4-(2-oxo-1,3-oxazolidin-3-yl)phenyl]propyl}-7-(1-methylethyl)-5,6,7,8-tetrahydroacridine-2-carboxamide] | 6.60
CC(C)[C@]1(F)CCc2nc3c(F)cc(C(=O)N[C@H](CCN4CCCC4)c4ccc(-c5ccnnc5)nc4)cc3cc2C1 (racemic) [Example 35, rac-(7S)-4,7-difluoro-7-isopropyl-N-[rac-(1R)-1-(6-pyridazin-4-yl-3-pyridyl)-3-pyrrolidin-1-ium-1-yl-propyl]-6,8-dihydro-5H-acridine-2-carboxamide;2,2,2-trifluoroacetate] | 6.55
CC(C)[C@]1(F)CCc2nc3c(F)cc(C(=O)N[C@H](CCN4CCC(C(C)(C)O)CC4)c4ccc(-c5ccnnc5)nc4)cc3cc2C1 (racemic) [Example 47, rac-(7S)-4,7-difluoro-7-isopropyl-N-[rac-(1R)-3-[4-(1-hydroxy-1-methyl-ethyl)piperidin-1-ium-1-yl]-1-(6-pyridazin-4-yl-3-pyridyl)propyl]-6,8-dihydro-5H-acridine-2-carboxamide;2,2,2-trifluoroacetate] | 6.72
CN(C)CC[C@@H](NC(=O)c1ccc2nc3c(cc2c1)C[C@@H](C1(C)CC1)CC3)c1cccc(C(=O)NC2CN(C)C2)c1 (racemic) [Example 67, rac-(7S)-7-(1-methylcyclopropyl)-N-[rac-(1R)-3-(dimethylamino)-1-[3-[(1-methylazetidin-3-yl)carbamoyl]phenyl]propyl]-5,6,7,8-tetrahydroacridine-2-carboxamide] | 6.42
CC1([C@H]2CCc3nc4ccc(C(=O)N[C@H](CCN5CCC[C@H]5CO)c5ccc(N6CCOC6=O)cc5)cc4cc3C2)CC1 [Example 2, (S)-N-((R)-3-((S)-2-(hydroxymethyl)pyrrolidin-1-yl)-1-(4-(2-oxooxazolidin-3-yl)phenyl)propyl)-7-(1-methylcyclopropyl)-5,6,7,8-tetrahydroacridine-2-carboxamide] | 5.76
Cc1cc(C(=O)N[C@H](CCN2CCC(O)CC2)c2ccc(N3CCOC3=O)cc2)cc2cc3c(nc12)CCC(C(C)(C)C)C3 (stereo partly drawn) [Example 9, 7-(tert-butyl)-N-((R)-3-(4-hydroxypiperidin-1-yl)-1-(4-(2-oxooxazolidin-3-yl)phenyl)propyl)-4-methyl-5,6,7,8-tetrahydroacridine-2-carboxamide+] | 5.59
CC(C)[C@]1(F)CCc2nc3c(F)cc(C(=O)N[C@H](CCN4CCC(O)CC4(C)C)c4ccc(-c5ccnnc5)nc4)cc3cc2C1 (stereo partly drawn) [Example 11, (7S)-4,7-difluoro-N-[(1R)-3-(4-hydroxy-2,2-dimethylpiperidin-1-yl)-1-(6-pyridazin-4-ylpyridin-3-yl)propyl]-7-(1-methylethyl)-5,6,7,8-tetrahydroacridine-2-carboxamide] | 6.66
CC(C)[C@]1(F)CCc2nc3c(F)cc(C(=O)N[C@H](CCN4CCC(O)(CO)CC4)c4ccc(-c5ccnnc5)nc4)cc3cc2C1 [Example 19, (7S)-4,7-difluoro-N-[(1R)-3-[4-hydroxy-4-(hydroxymethyl)piperidin-1-yl]-1-(6-pyridazin-4-ylpyridin-3-yl)propyl]-7-(1-methylethyl)-5,6,7,8-tetrahydroacridine-2-carboxamide] | 6.69
CN1CC(NC(=O)c2cccc([C@@H](CCN3CCC(O)CC3)NC(=O)c3ccc4nc5c(cc4c3)C[C@@H](C3(C)CC3)CC5)c2)C1 (racemic) [Example 68, rac-(7S)-7-(1-methylcyclopropyl)-N-[rac-(1R)-3-(4-hydroxy-1-piperidyl)-1-[3-[(1-methylazetidin-1-ium-3-yl)carbamoyl]phenyl]propyl]-5,6,7,8-tetrahydroacridine-2-carboxamide;2,2,2-trifluoroacetate] | 6.43
CC(C)[C@]1(F)CCc2nc3c(F)cc(C(=O)N[C@H](CCN4CCCCC4CN(C)C)c4ccc(-c5ccnnc5)nc4)cc3cc2C1 (mixture of isomers) [Example 59, rac-(7S)-4,7-difluoro-7-isopropyl-N-[rac-(1R)-3-[2-[(dimethylamino)methyl]-1-piperidyl]-1-(6-pyridazin-4-yl-3-pyridyl)propyl]-6,8-dihydro-5H-acridine-2-carboxamide] | 6.36
CC(C)[C@]1(F)CCc2nc3c(F)cc(C(=O)N[C@H](CCN4CCC(C(F)(F)F)CC4)c4ccc(-c5ccnnc5)nc4)cc3cc2C1 (racemic) [Example 64, rac-(7S)-4,7-difluoro-7-isopropyl-N-[rac-(1R)-1-(6-pyridazin-4-yl-3-pyridyl)-3-[4-(trifluoromethyl)-1-piperidyllpropyl]-6,8-dihydro-5H-acridine-2-carboxamide] | 5.98
CN1CC(NC(=O)c2cccc([C@@H](CCN3CCC[C@H]3CO)NC(=O)c3ccc4nc5c(cc4c3)C[C@@H](C3(C)CC3)CC5)c2)C1 [Example 21, (S)-N-((R)-3-((S)-2-(hydroxymethyl)pyrrolidin-1-yl)-1-(3-((1-methylazetidin-3-yl)carbamoyl)phenyl)propyl)-7-(1-methylcyclopropyl)-5,6,7,8-tetrahydroacridine-2-carboxamide] | 6.80
